Assay results taken from US20240409585A1, “MACROCYCLIC IMMUNOMODULATORS” (priority 2021, published 2024).
Numbered stars: 1 amine (or outer) side, 2 acyl side, 3 side chain; on linkers, the order of the positions; unused ones are H or OH. Bridge positions count the residues as written; N and C are the ends. Square brackets hold non-standard residues; d marks the D form. Peptide text beside a SMILES is read from it. * marks the point of attachment. Bip(4'-COOH) = N[C@@H](Cc1ccc(-c2ccc(C(=O)O)cc2)cc1)C(=O)O; Bip(4'-NHAc) = CC(=O)Nc1ccc(-c2ccc(C[C@H](N)C(=O)O)cc2)cc1; Phe(3-CF3) = N[C@@H](Cc1cccc(C(F)(F)F)c1)C(=O)O; Ala(morpholin-4-yl) = N[C@@H](CN1CCOCC1)C(=O)O; Phe(4-CONH2) = NC(=O)c1ccc(C[C@H](N)C(=O)O)cc1; Phe(4-COOH) = N[C@@H](Cc1ccc(C(=O)O)cc1)C(=O)O; X5 = CS(=O)(=O)NC(=O)C[C@H](N[*:1])C(=O)[*:2]; Bip = N[C@@H](Cc1ccc(-c2ccccc2)cc1)C(=O)O; Abu(3R-NH2) = C[C@@H](N)[C@H](N)C(=O)O; Phe(3-Me) = Cc1cccc(C[C@H](N)C(=O)O)c1; Val(3-OH) = CC(C)(O)[C@H](N)C(=O)O; hPhe = N[C@@H](CCc1ccccc1)C(=O)O; Aad = N[C@@H](CCCC(=O)O)C(=O)O; Cha = N[C@@H](CC1CCCCC1)C(=O)O; Carboxymethyl = O=C(O)C*; NMeA = CN[C@@H](C)C(=O)O; Orn = NCCC[C@H](N)C(=O)O; Dab = NCC[C@H](N)C(=O)O; X43 = c1coc(N*)n1

Molecular target: T1, Alexa fluor-647 labeled human PD-L1-Ig binding to Jurkat cell line over-expressing human PD-1 (Homo sapiens, UniProt Q15116)
T1 construct: expressed in transfected cells; host or cells: Jurkat
Assay: Jurkat-PD-1 Cell Binding High-Content Screening Assay (CBA): Method 3 (Alexa fluor-647 labeled PD-L1-Ig)
Settings: Jurkat-PD-1 cells, Alexa fluor-647 labeled PD-L1-Ig 177 nM; head μM; read-out: CBA Method 3 μM
Procedure, shortened: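 Readout by high-content imaging of PFA-fixed, Hoechst-stained cells after 1 h with 177 nM (final) Alexa fluor-647 PD-L1-Ig. Compound was added first to hPD-1 Jurkat cells in RPMI plus 10% FCS for 2 h at 37 °C.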

T1 sequence (Q15116 25-288): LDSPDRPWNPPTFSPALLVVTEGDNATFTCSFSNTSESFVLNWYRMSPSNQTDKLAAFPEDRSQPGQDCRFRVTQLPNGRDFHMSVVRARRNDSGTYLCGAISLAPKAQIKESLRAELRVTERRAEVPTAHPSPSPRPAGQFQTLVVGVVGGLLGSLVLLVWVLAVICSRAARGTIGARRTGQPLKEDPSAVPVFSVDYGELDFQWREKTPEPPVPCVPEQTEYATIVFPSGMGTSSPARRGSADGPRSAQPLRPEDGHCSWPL

In order of rising IC50:
1. CC(C)C[C@H]1NC(=O)[C@H](C)N(C)C(=O)[C@H](CCC(N)=O)NC(=O)[C@H](Cc2ccc(-c3ccccc3)cc2)NC(=O)[C@H](Cc2ccc(OCC(=O)O)cc2)NC(=O)[C@H](Cc2cccc(C(F)(F)F)c2)NC(=O)[C@H](CC(=O)O)NC(=O)[C@H](Cc2ccc(O)cc2)NC(=O)[C@H](CC2CCCCC2)NC(=O)CSC[C@@H](C(=O)N[C@@H](CCN)C(N)=O)NC(=O)[C@H](CCCN)NC(=O)[C@H](C(C)C)NC(=O)[C@H](CC2CCCCC2)NC(=O)[C@H](CCN)NC1=O [Example 5238] ({CH2CO}-[Cha]YD[Phe(3-CF3)]Y(Carboxymethyl)[Bip]Q[NMeA][dL][Dab][Cha]V[Orn]C[Dab]-NH2; thioether N-14)  0.01 µM
2. CC(=O)Nc1ccc(-c2ccc(C[C@@H]3NC(=O)[C@H](Cc4cccc(C(F)(F)F)c4)NC(=O)[C@H](CC(=O)O)NC(=O)[C@H](Cc4ccc(C(=O)O)cc4)NC(=O)[C@H](CCN)NC(=O)CSC[C@@H](C(=O)N[C@@H](CCN)C(N)=O)NC(=O)[C@H](CC(N)=O)NC(=O)[C@H](C(C)C)NC(=O)[C@H](CC4CCCCC4)NC(=O)[C@H](CCN)NC(=O)[C@@H](CC(C)C)NC(=O)[C@H](C)N(C)C(=O)[C@H](Cc4ccc(C(N)=O)cc4)NC(=O)[C@H](Cc4ccc(-c5ccccc5)cc4)NC3=O)cc2)cc1 [Example 5098] ({CH2CO}-[Dab][Phe(4-COOH)]D[Phe(3-CF3)][Bip(4'-NHAc)][Bip][Phe(4-CONH2)][NMeA][dL][Dab][Cha]VNC[Dab]-NH2; thioether N-14)  0.01 µM
3. Cc1cccc(C[C@@H]2NC(=O)[C@H](CC(=O)O)NC(=O)[C@H](Cc3ccc(C(=O)O)cc3)NC(=O)[C@H](CN3CCOCC3)NC(=O)CSC[C@@H](C(=O)N[C@@H](CCN)C(N)=O)NC(=O)[C@H](CCC(=O)O)NC(=O)[C@H](C(C)C)NC(=O)[C@H](CC3CCCCC3)NC(=O)[C@H](CCN)NC(=O)[C@@H](CC(C)C)NC(=O)[C@H](C)N(C)C(=O)[C@H](Cc3ccc(C(=O)O)cc3)NC(=O)[C@H](Cc3ccc(-c4ccccc4)cc3)NC(=O)[C@H](Cc3ccc(C(=O)O)cc3)NC2=O)c1 [Example 5259] ({CH2CO}-[Ala(morpholin-4-yl)][Phe(4-COOH)]D[Phe(3-Me)][Phe(4-COOH)][Bip][Phe(4-COOH)][NMeA][dL][Dab][Cha]VEC[Dab]-NH2; thioether N-14)  0.01 µM
4. CC(=O)Nc1ccc(-c2ccc(C[C@@H]3NC(=O)[C@H](Cc4cccc(C)c4)NC(=O)[C@H](CC(=O)O)NC(=O)[C@H](Cc4ccc(C(=O)O)cc4)NC(=O)[C@H](CN4CCOCC4)NC(=O)CSC[C@@H](C(=O)N[C@@H](CCN)C(N)=O)NC(=O)[C@H](CCCC(N)=O)NC(=O)[C@H](C(C)C)NC(=O)[C@H](CC4CCCCC4)NC(=O)[C@H](CCN)NC(=O)[C@@H](CC(C)C)NC(=O)[C@H](C)N(C)C(=O)[C@H](Cc4ccc(C(=O)O)cc4)NC(=O)[C@H](Cc4ccc(-c5ccccc5)cc4)NC3=O)cc2)cc1 [Example 5257] ({CH2CO}-[Ala(morpholin-4-yl)][Phe(4-COOH)]D[Phe(3-Me)][Bip(4'-NHAc)][Bip][Phe(4-COOH)][NMeA][dL][Dab][Cha]V[Aad](NH2)C[Dab]-NH2; thioether N-14)  0.03 µM
5. CC(=O)Nc1ccc(-c2ccc(C[C@@H]3NC(=O)[C@H](Cc4cccc(C(F)(F)F)c4)NC(=O)[C@H](CC(=O)O)NC(=O)[C@H](Cc4ccc(C(=O)O)cc4)NC(=O)[C@H](CN4CCOCC4)NC(=O)CSC[C@@H](C(=O)N[C@@H](CCN)C(N)=O)NC(=O)[C@H](CCC(=O)O)NC(=O)[C@H](C(C)C)NC(=O)[C@H](CC4CCCCC4)NC(=O)[C@H](CCN)NC(=O)[C@@H](CC(C)C)NC(=O)[C@H](C)N(C)C(=O)[C@H](Cc4ccc(C(=O)O)cc4)NC(=O)[C@H](Cc4ccc(-c5ccccc5)cc4)NC3=O)cc2)cc1 [Example 5159] ({CH2CO}-[Ala(morpholin-4-yl)][Phe(4-COOH)]D[Phe(3-CF3)][Bip(4'-NHAc)][Bip][Phe(4-COOH)][NMeA][dL][Dab][Cha]VEC[Dab]-NH2; thioether N-14)  0.04 µM
6. CC(C)C[C@H]1NC(=O)[C@H](C)N(C)C(=O)[C@H](CCC(N)=O)NC(=O)[C@H](Cc2ccc(-c3ccccc3)cc2)NC(=O)[C@H](Cc2ccc(OCC(=O)O)cc2)NC(=O)[C@H](Cc2cccc(C(F)(F)F)c2)NC(=O)[C@H](CC(=O)O)NC(=O)[C@H](CCc2ccccc2)NC(=O)[C@H](CN2CCOCC2)NC(=O)CSC[C@@H](C(=O)N[C@@H](CCN)C(N)=O)NC(=O)[C@H](CCCN)NC(=O)[C@H](C(C)C)NC(=O)[C@H](CC2CCCCC2)NC(=O)[C@H](CCN)NC1=O [Example 5264] ({CH2CO}-[Ala(morpholin-4-yl)][hPhe]D[Phe(3-CF3)]Y(Carboxymethyl)[Bip]Q[NMeA][dL][Dab][Cha]V[Orn]C[Dab]-NH2; thioether N-14)  0.1 µM
7. CC(=O)Nc1ccc(-c2ccc(C[C@@H]3NC(=O)[C@H](Cc4cccc(C)c4)NC(=O)[C@H](CC(=O)O)NC(=O)[C@H](Cc4ccc(-c5ccc(C(=O)O)cc5)cc4)NC(=O)[C@H](CN4CCOCC4)NC(=O)CSC[C@@H](C(=O)N[C@@H](CCN)C(N)=O)NC(=O)[C@H](CCC(=O)O)NC(=O)[C@H](C(C)C)NC(=O)[C@H](CC4CCCCC4)NC(=O)[C@H](CCN)NC(=O)[C@@H](CC(C)C)NC(=O)[C@H](C)N(C)C(=O)[C@H](Cc4ccc(C(=O)O)cc4)NC(=O)[C@H](Cc4ccc(-c5ccccc5)cc4)NC3=O)cc2)cc1 [Example 5092] ({CH2CO}-[Ala(morpholin-4-yl)][Bip(4'-COOH)]D[Phe(3-Me)][Bip(4'-NHAc)][Bip][Phe(4-COOH)][NMeA][dL][Dab][Cha]VEC[Dab]-NH2; thioether N-14)  0.1 µM
8. CC(=O)Nc1ccc(-c2ccc(C[C@@H]3NC(=O)[C@H](Cc4cccc(C(F)(F)F)c4)NC(=O)[C@H](CC(=O)NS(C)(=O)=O)NC(=O)[C@H](Cc4ccc(C(N)=O)cc4)NC(=O)[C@H](CC(C)C)NC(=O)CSC[C@@H](C(=O)N[C@@H](CCN)C(N)=O)NC(=O)[C@H](CC(N)=O)NC(=O)[C@H](C(C)C)NC(=O)[C@H](CC4CCCCC4)NC(=O)[C@H](CCN)NC(=O)[C@@H](CC(C)C)NC(=O)[C@H](C)N(C)C(=O)[C@H](Cc4ccc(C(N)=O)cc4)NC(=O)[C@H](Cc4ccc(-c5ccccc5)cc4)NC3=O)cc2)cc1 [Example 5114] ({CH2CO}-L[Phe(4-CONH2)][X5][Phe(3-CF3)][Bip(4'-NHAc)][Bip][Phe(4-CONH2)][NMeA][dL][Dab][Cha]VNC[Dab]-NH2; thioether N-14)  0.11 µM
9. CC(C)C[C@H]1NC(=O)[C@H](C)N(C)C(=O)[C@H](CCCN)NC(=O)[C@H](Cc2ccc(-c3ccccc3)cc2)NC(=O)[C@H](Cc2ccc(-c3ccc(C(=O)O)cc3)cc2)NC(=O)[C@H](Cc2cccc(C(F)(F)F)c2)NC(=O)[C@H](CC(=O)Nc2ncco2)NC(=O)[C@H](Cc2ccc(-c3ccc(C(=O)O)cc3)cc2)NC(=O)[C@H](Cc2ccc(OCC(=O)O)cc2)NC(=O)CSC[C@@H](C(=O)N[C@@H](CCN)C(N)=O)NC(=O)[C@H](CC(N)=O)NC(=O)[C@H](C(C)C)NC(=O)[C@H](CC2CCCCC2)NC(=O)[C@H](CCN)NC1=O [Example 5116] ({CH2CO}-Y(Carboxymethyl)[Bip(4'-COOH)]D(X43)[Phe(3-CF3)][Bip(4'-COOH)][Bip][Orn][NMeA][dL][Dab][Cha]VNC[Dab]-NH2; thioether N-14)  0.33 µM

Same assay, conditions: Jurkat-PD-1 cells, Alexa fluor-647 labeled PD-L1-Ig 177 nM; nM; read-out: CBA Method 3

In order of rising IC50:
1. Cc1cccc(C[C@@H]2NC(=O)[C@H](CC(=O)O)NC(=O)[C@H](Cc3ccc(OCC(=O)O)cc3)NC(=O)[C@H](Cc3ccccc3)NC(=O)CSC[C@@H](C(=O)N[C@@H](CCN)C(N)=O)NC(=O)[C@H](CCCN)NC(=O)[C@H](C(C)C)NC(=O)[C@H](CC3CCCCC3)NC(=O)[C@H](CCN)NC(=O)[C@@H](CC(C)C)NC(=O)[C@H](C)N(C)C(=O)[C@H](CCC(N)=O)NC(=O)[C@H](Cc3ccc(-c4ccccc4)cc3)NC(=O)[C@H](Cc3ccc(C(=O)O)cc3)NC2=O)c1 [Example 5267] ({CH2CO}-FY(Carboxymethyl)D[Phe(3-Me)][Phe(4-COOH)][Bip]Q[NMeA][dL][Dab][Cha]V[Orn]C[Dab]-NH2; thioether N-14)  0.0012 µM
2. CC(C)C[C@H]1NC(=O)[C@H](C)N(C)C(=O)[C@H](CCC(N)=O)NC(=O)[C@H](Cc2ccc(-c3ccccc3)cc2)NC(=O)[C@H](CCc2ccccc2)NC(=O)[C@H](Cc2cccc(C(F)(F)F)c2)NC(=O)[C@H](CC(=O)O)NC(=O)[C@H](Cc2ccc(O)cc2)NC(=O)[C@H]([C@@H](C)N)NC(=O)CSC[C@@H](C(=O)N[C@@H](CCN)C(N)=O)NC(=O)[C@H](CCC(N)=O)NC(=O)[C@H](C(C)C)NC(=O)[C@H](CC2CCCCC2)NC(=O)[C@H](CCN)NC1=O [Example 5242] ({CH2CO}-[Abu(3R-NH2)]YD[Phe(3-CF3)][hPhe][Bip]Q[NMeA][dL][Dab][Cha]VQC[Dab]-NH2; thioether N-14)  0.0021 µM
3. Cc1cccc(C[C@@H]2NC(=O)[C@H](CC(=O)O)NC(=O)[C@H](Cc3ccc(OCC(=O)O)cc3)NC(=O)[C@H](CCCNC(=N)N)NC(=O)CSC[C@@H](C(=O)N[C@@H](CCN)C(N)=O)NC(=O)[C@H](CCCN)NC(=O)[C@H](C(C)C)NC(=O)[C@H](CC3CCCCC3)NC(=O)[C@H](CCN)NC(=O)[C@@H](CC(C)C)NC(=O)[C@H](C)N(C)C(=O)[C@H](CCC(N)=O)NC(=O)[C@H](Cc3ccc(-c4ccccc4)cc3)NC(=O)[C@H](Cc3ccc(C(=O)O)cc3)NC2=O)c1 [Example 5183] ({CH2CO}-RY(Carboxymethyl)D[Phe(3-Me)][Phe(4-COOH)][Bip]Q[NMeA][dL][Dab][Cha]V[Orn]C[Dab]-NH2; thioether N-14)  0.0023 µM
4. Cc1cccc(C[C@@H]2NC(=O)[C@H](CC(=O)O)NC(=O)[C@H](Cc3ccc(-c4ccc(C(=O)O)cc4)cc3)NC(=O)[C@H](CN3CCOCC3)NC(=O)CSC[C@@H](C(=O)N[C@@H](CCN)C(N)=O)NC(=O)[C@H](CCC(=O)O)NC(=O)[C@H](C(C)(C)O)NC(=O)[C@H](CC(C)C)NC(=O)[C@H](CC(N)=O)NC(=O)[C@@H](CC(C)C)NC(=O)[C@H](C)N(C)C(=O)[C@H](C(C)C)NC(=O)[C@H](Cc3ccc(-c4ccccc4)cc3)NC(=O)[C@H](CC(C)C)NC2=O)c1 [Example 5126] ({CH2CO}-[Ala(morpholin-4-yl)][Bip(4'-COOH)]D[Phe(3-Me)]L[Bip]V[NMeA][dL]NL[Val(3-OH)]EC[Dab]-NH2; thioether N-14)  0.0032 µM
